Measured values as given in ChEMBL document CHEMBL1201862, “PubChem BioAssay data set” (2004).
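1) Cells in 96-well plates. 2) Compound, 48 h, 5 concentrations. 3) Linear interpolation between surrounding doses. 4) Unreached endpoint = highest concentration. At the GI50, growth is halved.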 Active and inactive are the calls of the source. Cut-off read from the data, not from the text of the source: active = GI50 up to about 1.1 µM and inactive = higher.

Legend:
Experiment in all cases: NCI-60 cell line screen, 48 h
NCI-H460 = system: NCI-H460
K562 = system: K562
OVCAR-5 = system: OVCAR-5
LOX IMVI = system: LOX IMVI
HOP-92 = system: HOP-92
UACC-62 = system: UACC-62
HCT-116 = system: HCT-116
UACC-257 = system: UACC-257
NCI-H226 = system: NCI-H226
RXF 393 = system: RXF 393
MCF7 = system: MCF7
SK-MEL-5 = system: SK-MEL-5
SK-OV-3 = system: SK-OV-3
HOP-62 = system: HOP-62
HCT-15 = system: HCT-15
Malme-3M = system: Malme-3M
MDA-MB-435 = system: MDA-MB-435
Hs-578T = system: Hs-578T
PC-3 = system: PC-3
MDA-N = system: MDA-N

Row | Compound | GI50 (NCI-H460) | GI50 (K562) | GI50 (OVCAR-5) | GI50 (LOX IMVI) | GI50 (HOP-92) | GI50 (UACC-62) | GI50 (HCT-116) | GI50 (UACC-257) | GI50 (NCI-H226) | GI50 (RXF 393) | GI50 (MCF7) | GI50 (SK-MEL-5) | GI50 (SK-OV-3) | GI50 (HOP-62) | GI50 (HCT-15) | GI50 (Malme-3M) | GI50 (MDA-MB-435) | GI50 (Hs-578T) | GI50 (PC-3) | GI50 (MDA-N)
1 | NC(=O)c1ncn2c1NC(=O)CC2 | > 100 µM (inactive) | > 100 µM (inactive) | > 100 µM (inactive) | > 100 µM (inactive) | > 100 µM (inactive) | > 67.8 µM (inactive) | > 100 µM (inactive) | > 100 µM (inactive) | > 100 µM (inactive) | > 100 µM (inactive) | > 100 µM (inactive) | > 100 µM (inactive) | > 100 µM (inactive) | > 100 µM (inactive) | > 100 µM | > 100 µM (inactive) |  |  |  | 
2 | CC(C(=O)n1nnc2ccccc21)N(c1ccccc1)c1ccccc1 (stereo unspecified) | > 100 µM (inactive) | > 100 µM (inactive) | > 100 µM (inactive) | 76.6 µM (inactive) |  | > 100 µM (inactive) | 89.5 µM (inactive) | 72.4 µM (inactive) | 87.7 µM (inactive) | > 100 µM (inactive) |  | 42.9 µM (inactive) | > 100 µM (inactive) | > 100 µM (inactive) | > 100 µM | 84.7 µM (inactive) |  |  |  | 
3 | CC(C)(C)[Si](OC1CCOC1=O)(c1ccccc1)c1ccccc1 (stereo unspecified) | 18.7 µM (inactive) |  | 26.7 µM (inactive) | 15.5 µM (inactive) | > 10 µM (inactive) | 13.9 µM (inactive) | 13.6 µM (inactive) | 17.1 µM (inactive) |  |  |  | 13.4 µM (inactive) | 33.9 µM (inactive) |  | 18.5 µM | 16.5 µM (inactive) |  |  |  | 
4 | O=C(CSCC(=O)N/N=C/c1cc(I)cc(I)c1O)N/N=C/c1cc(I)cc(I)c1O | 25.6 µM (inactive) | 11.1 µM (inactive) | 39.5 µM (inactive) |  | 39.5 µM (inactive) | 12.8 µM (inactive) | 9.29 µM (inactive) | 22.4 µM (inactive) | 7.91 µM (inactive) | 10.6 µM (inactive) | 15.1 µM (inactive) | 10.6 µM (inactive) | 10.8 µM (inactive) | 9.27 µM (inactive) | 17.9 µM | 18.1 µM (inactive) | 25.4 µM (inactive) | 6.78 µM (inactive) | 32.3 µM (inactive) | 
5 | CC(C)CC(NC(=O)OCc1ccccc1)C(=O)NCCCCC(N)C(=O)NC(CCCCNC(=O)C(CC(C)C)NC(=O)OCc1ccccc1)C(=O)NC(CCCCNC(=O)C(CC(C)C)NC(=O)OCc1ccccc1)C(=O)NC(CCCCNC(=O)C(CC(C)C)NC(=O)OCc1ccccc1)C(=O)NC(CCCCNC(=O)C(CC(C)C)NC(=O)OCc1ccccc1)C(=O)NC(CCCCNC(=O)C(CC(C)C)NC(=O)OCc1ccccc1)C(=O)O (stereo unspecified) | > 100 µM (inactive) | > 100 µM (inactive) | > 100 µM (inactive) | 88.5 µM (inactive) |  | > 100 µM (inactive) | > 100 µM (inactive) | > 100 µM (inactive) | > 100 µM (inactive) |  | > 100 µM (inactive) | > 100 µM (inactive) |  | > 100 µM (inactive) | > 100 µM | > 100 µM (inactive) | > 100 µM (inactive) |  | > 100 µM (inactive) | > 100 µM (inactive)
6 | CC[C@@H]1C[C@@H]2CN3CCc4c([nH]c5ccc(OC)cc45)C(COC(=O)c4ccc(OC)c(OC)c4)(C2)C13 | 21.3 µM (inactive) | 7.91 µM (inactive) | 22.6 µM (inactive) | 12.7 µM (inactive) | 10 µM (inactive) | 13.7 µM (inactive) | 4.34 µM (inactive) | 18.3 µM (inactive) | 10.4 µM (inactive) | 14.2 µM (inactive) |  |  |  | 22.9 µM (inactive) | 18.4 µM | > 10 µM (inactive) |  |  |  | 
7 | COC(=O)C(=O)C(C(C)=O)C(=O)C(=O)Nc1ccc(C)cc1C (stereo unspecified) | > 100 µM (inactive) | > 100 µM (inactive) | > 100 µM (inactive) | > 100 µM (inactive) | > 100 µM (inactive) | > 100 µM (inactive) | > 100 µM (inactive) | > 100 µM (inactive) | > 100 µM (inactive) | > 100 µM (inactive) |  | > 100 µM (inactive) | > 100 µM (inactive) | > 100 µM (inactive) | > 100 µM |  |  |  |  | 
8 | O=NN(CCCl)C(=O)N[C@H]1CC[C@H](C(=O)O)CC1 | 44.6 µM (inactive) | > 100 µM (inactive) | > 100 µM (inactive) | > 72.6 µM (inactive) | > 100 µM (inactive) | 20.2 µM (inactive) | > 100 µM (inactive) | > 100 µM (inactive) | > 100 µM (inactive) | > 100 µM (inactive) | > 100 µM (inactive) | > 31.6 µM (inactive) | > 100 µM (inactive) | 95.5 µM (inactive) | > 100 µM | 94.8 µM (inactive) |  |  |  | 
9 | COc1ccc(C2=NN(c3nsc4ccccc34)C(=O)CC2)cc1 | 62.7 µM (inactive) | 36 µM (inactive) | > 100 µM (inactive) | 89.1 µM (inactive) | 92 µM (inactive) | > 100 µM (inactive) | 54.2 µM (inactive) | > 100 µM (inactive) |  | > 100 µM (inactive) |  | 61.4 µM (inactive) |  | > 100 µM (inactive) | 57.9 µM |  |  |  |  | 
10 | NC(=S)N/N=C1\CC(c2ccccc2)Nc2ccccc21 (stereo unspecified) | 32.7 µM (inactive) | 12.2 µM (inactive) |  | 34.2 µM (inactive) | 16.4 µM (inactive) | 34.3 µM (inactive) |  |  | 39 µM (inactive) |  |  | 19.5 µM (inactive) | 39.1 µM (inactive) |  | 28.6 µM | 27.6 µM (inactive) |  |  |  | 
11 | CON(C)C(=O)C(Cc1ccccc1)NC(=O)OCc1ccccc1 (stereo unspecified) | > 100 µM (inactive) | 77.1 µM (inactive) | > 100 µM (inactive) |  | > 100 µM (inactive) | > 100 µM (inactive) | > 100 µM (inactive) | 86.1 µM (inactive) |  | > 100 µM (inactive) |  | 97.7 µM (inactive) | > 100 µM (inactive) | > 100 µM (inactive) | > 100 µM | 75.5 µM (inactive) |  |  |  | 
12 | NS(=O)(=O)c1cc2c(cc1Cl)NC(C(=O)NNC(=O)c1ccncc1)=NS2(=O)=O | > 100 µM (inactive) |  |  | > 100 µM (inactive) | > 100 µM (inactive) | > 100 µM (inactive) | > 100 µM (inactive) | > 100 µM (inactive) | > 100 µM (inactive) | > 100 µM (inactive) |  | > 100 µM (inactive) | > 100 µM (inactive) | > 100 µM (inactive) | > 100 µM | > 100 µM (inactive) |  |  |  | 
13 | CCOC(=O)N1C2C=C(C)C(ON2C(=O)c2ccccc2)C2C(C)C(=O)N21 (stereo unspecified) | > 100 µM (inactive) | > 100 µM (inactive) | > 100 µM (inactive) | > 100 µM (inactive) | > 100 µM (inactive) | > 100 µM (inactive) | > 100 µM (inactive) | > 100 µM (inactive) | > 100 µM (inactive) | > 100 µM (inactive) |  | > 100 µM (inactive) | > 100 µM (inactive) | > 100 µM (inactive) | > 100 µM | > 100 µM (inactive) |  |  |  | 
14 | COC(=O)c1c[nH]cc1CCc1c[nH]cc1C(=O)OC | > 100 µM (inactive) | > 100 µM (inactive) | > 100 µM (inactive) | > 100 µM (inactive) | > 100 µM (inactive) |  | > 100 µM (inactive) | > 100 µM (inactive) | > 100 µM (inactive) | 27.2 µM (inactive) |  |  | > 100 µM (inactive) | > 100 µM (inactive) | > 100 µM | > 100 µM (inactive) |  |  |  | 
15 | NC(=O)c1csc(C2O[C@@H](COP(=O)(O)OP(=O)(O)OC[C@H]3OC(n4cnc5c(N)ncnc54)[C@H](O)[C@@H]3O)[C@H](O)[C@@H]2O)n1 (stereo partly specified) | 39.6 µM (inactive) | 23.6 µM (inactive) | > 100 µM (inactive) | 54.5 µM (inactive) | > 100 µM (inactive) | 72.1 µM (inactive) |  | 66.8 µM (inactive) | > 100 µM (inactive) |  |  | > 100 µM (inactive) | > 100 µM (inactive) | > 100 µM (inactive) | > 100 µM | > 100 µM (inactive) |  |  |  | 
16 | C=C1CC(OC)(C(O)C(=O)N[C@H]2OCO[C@H]3C2O[C@H](C[C@@H](COC)OC)C(C)(C)C3OC)O[C@H](C)[C@@H]1C (stereo partly specified) | < 0.00482 µM (active) | < 0.00482 µM (active) | < 0.00482 µM (active) | < 0.00482 µM (active) |  | < 0.00482 µM (active) | < 0.00482 µM (active) | < 0.00482 µM (active) | < 0.00482 µM (active) | < 0.00482 µM (active) | < 0.00482 µM (active) | < 0.00482 µM (active) |  | < 0.00482 µM (active) | < 0.00482 µM |  |  |  |  | 
17 | COc1ccc(C2CC(c3sc(Nc4ccc(C)cc4)nc3C)=NN2)cc1 (stereo unspecified) | 14.9 µM (inactive) | 12.8 µM (inactive) | 22.4 µM (inactive) | 18.2 µM (inactive) | 14.2 µM (inactive) | 40 µM (inactive) | 6.46 µM (inactive) | 15.8 µM (inactive) | 16.6 µM (inactive) | 13.2 µM (inactive) | 14 µM (inactive) | 16 µM (inactive) | 24.4 µM (inactive) | 20.7 µM (inactive) | 15.1 µM | > 10 µM (inactive) |  |  |  | 
18 | COc1cccc(CC(C)N)c1 (stereo unspecified) | > 100 µM (inactive) | > 100 µM (inactive) | > 100 µM (inactive) | > 100 µM (inactive) | > 100 µM (inactive) | > 100 µM (inactive) | > 100 µM (inactive) | > 100 µM (inactive) | > 100 µM (inactive) | > 100 µM (inactive) |  | > 100 µM (inactive) | > 100 µM (inactive) | > 100 µM (inactive) | > 100 µM | > 100 µM (inactive) |  |  |  | 
